Structures are written as SMILES. Counter-ions that a name gives are not always drawn.

Consider 38 molecules from patent US20230339937A1, “CONDENSED RING COMPOUNDS THAT INHIBIT H-PGDS” (SATO PHARMACEUTICAL CO., LTD., priority 2020, published 2023).

The experiment has as its target T1, Recombinant human H-PGDS (Homo sapiens, UniProt O60760).
T1 construct: made in house; host or cells: E. coli
Nature of the experiment: H-PGDS inhibitory activity (prostaglandin D2 production from prostaglandin H2, measured by LC-MS/MS). The class given is biochemical. The following applies: recombinant human H-PGDS 1.0 nM expressed in E. coli; prostaglandin H2 25 μM; preincubated 15 minutes on ice, reacted on ice for 1 minute; concentration that inhibits prostaglandin D2 production by 50%. In short, it runs like this: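 PGD2 formed from 25 µM prostaglandin H2 during a 1-min on-ice reaction was measured by LC-MS/MS after an FeCl2/citric acid stop. The enzyme was 1.0 nM E. coli-expressed human H-PGDS in Tris-HCl pH 8.0 buffer with MgCl2, reduced glutathione and γ-globulin, preincubated with compound for 15 min on ice. Production was normalised to DMSO controls minus the no-enzyme background.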

T1 sequence (O60760 whole entry): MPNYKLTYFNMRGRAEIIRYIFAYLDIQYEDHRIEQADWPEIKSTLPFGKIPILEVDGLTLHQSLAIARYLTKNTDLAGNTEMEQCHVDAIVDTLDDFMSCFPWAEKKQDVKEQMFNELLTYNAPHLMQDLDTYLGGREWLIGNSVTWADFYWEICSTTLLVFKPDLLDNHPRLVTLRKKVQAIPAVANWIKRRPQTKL

With `O=C(NCC1CCCC1)c1ccc(-c2nccc3occc23)cc1` [Example 84, N-(cyclopenthyl-methyl)-4-(furo[3,2-c]pyridin-4-yl)benzamide], the IC50 worked out at 14 nM.

`N#CN1CCC(NC(=O)c2ccc(-c3nccc4occc34)cc2)CC1` [Example 247, N-(1-cyanopiperidin-4-yl)-4-(furo[3,2-c]pyridin-4-yl)benzamide]: the IC50 was found to be 2.3 nM.

For the molecule `O=C(N[C@@H]1CN(c2ncc(CO)cn2)C[C@@H]1F)c1ccc(-c2nccc3occc23)cc1` [Example 204, N-{(3R,4S)-4-fluoro-1-[5-(hydroxymethyl)pyrimidin-2-yl]pyrrolidin-3-yl}-4-(furo[3,2-c]pyridin-4-yl)benzamide], the IC50 was 1.1 nM.

For the molecule `O=C(N[C@H]1CC[C@H](NC2COC2)CC1)c1ccc(-c2nccc3occc23)cc1` [Example 295, 4-(furo[3,2-c]pyridin-4-yl)-N-[trans-4-(oxetan-3-ylamino)cyclohexyl]benzamide], the IC50 turned out to be 2.1 nM.

As for `O=C(NC12CC3CC(CC(O)(C3)C1)C2)c1ccc(-c2nccc3occc23)cc1` [Example 271, 4-(furo[3,2-c]pyridin-4-yl)-N-(3-hydroxyadamantan-1-yl)benzamide], the half-inhibitory concentration (IC50) stood at 1.2 nM.

In the case of `CCn1nnnc1N1CC[C@H](NC(=O)c2ccc(-c3nccc4occc34)cc2)C1` [Example 232, (S)-4-(furo[3,2-c]pyridin-4-yl)-N-[1-(1-ethyl-1H-tetrazol-5-yl)pyrrolidin-3-yl]benzamide], the IC50 was 2 nM.

As for `O=C(N[C@@H]1CCN(c2ncccn2)C1)c1ccc(-c2nccc3occc23)cc1` [Example 192, (R)-4-(furo[3,2-c]pyridin-4-yl)-N-[1-(pyrimidin-2-yl)pyrrolidin-3-yl]benzamide], the 50% inhibitory concentration (IC50) was 7.7 nM.

On to `O=C(NC1CCC(N2CCC(F)(F)CC2)CC1)c1ccc(-c2nccc3occc23)cc1` (centres unmarked) [Example 307, N-[4-(4,4-difluoropiperidin-1-yl)cyclohexyl]-4-(furo[3,2-c]pyridin-4-yl)benzamide], for which the IC50 amounted to 2.2 nM.

With `O=C(Nc1cc(-c2ccccc2)[nH]n1)c1ccc(-c2nccc3occc23)cc1` [Example 100, 4-(furo[3,2-c]pyridin-4-yl)-N-(5-phenyl-1H-pyrazol-3-yl)benzamide], the IC50 is 19 nM.

For `O=C(Nc1ccc(N2CCC(C(=O)N3CCOCC3)CC2)c(F)c1)c1ccc(-c2nccc3occc23)cc1` [Example 223, N-{3-fluoro-4-[4-(morpholine-4-carbonyl)piperidin-1-yl]phenyl}-4-(furo[3,2-c]pyridin-4-yl)benzamide], the concentration for half-maximal inhibition (IC50) amounted to 5.3 nM.

`CC(C)(O)[C@H]1CC[C@H](NC(=O)c2ccc(-c3nccc4occc34)cc2F)CC1` [Example 126, 2-fluoro-4-(furo[3,2-c]pyridin-4-yl)-N-[trans-4-(2-hydroxypropan-2-yl)cyclohexyl]benzamide]: the IC50 amounted to 13 nM.

`CS(=O)(=O)c1ccc(NC(=O)c2ccc(-c3nccc4occc34)cc2)cc1` [Example 109, 4-(furo[3,2-c]pyridin-4-yl)-N-[4-(methylsulfonyl)phenyl]benzamide]: the IC50 was found to be 2.9 nM.

Regarding `O=C(NC1CCN(c2cnccn2)CC1)c1ccc(-c2nccc3occc23)cc1` [Example 145, 4-(furo[3,2-c]pyridin-4-yl)-N-[1-(pyrazin-2-yl)piperidin-4-yl]benzamide], the IC50 was 1.2 nM.

Consider `CC(=O)Nc1cnc(N2CCC(NC(=O)c3ccc(-c4nccc5occc45)cc3)CC2)nc1` [Example 189, N-[1-(5-acetamidopyrimidin-2-yl)piperidin-4-yl]-4-(furo[3,2-c]pyridin-4-yl)benzamide], for which the IC50 is 2.3 nM.

In the case of `CC1(C)CC(O)CC(NC(=O)c2ccc(-c3nccc4occc34)cc2)C1` (centres unmarked) [Example 280, 4-(furo[3,2-c]pyridin-4-yl)-N-(5-hydroxy-3,3-dimethylcyclohexyl)benzamide], the IC50 came out at 2.2 nM.

On to `O=C(Nc1cccnc1)c1ccc(-c2nccc3occc23)cc1` [Example 103, 4-(furo[3,2-c]pyridin-4-yl)-N-(pyridin-3-yl)benzamide], for which the IC50 was 2.1 nM.

With `O=C(NC1CC2CCC(C1)C2O)c1ccc(-c2nccc3occc23)cc1` (centres unmarked) [Example 281, 4-(furo[3,2-c]pyridin-4-yl)-N-(8-hydroxybicyclo[3.2.1]octan-3-yl)benzamide], the concentration for half-maximal inhibition (IC50) was 2 nM.

Regarding `CC(O)c1cnc(-c2ccc(C(=O)N[C@H]3CC[C@H](C(C)(C)O)CC3)cc2)c2ccoc12` (stereo partly drawn) [Example 141, 4-[7-(1-hydroxyethyl)furo[3,2-c]pyridin-4-yl]-N-[trans-4-(2-hydroxypropan-2-yl)cyclohexyl]benzamide], the IC50 was found to be 160 nM.

For the molecule `CC1(C)CC(NC(=O)c2ccc(-c3nccc4occc34)cc2)CCC1O` (centres unmarked) [Example 277, 4-(furo[3,2-c]pyridin-4-yl)-N-(4-hydroxy-3,3-dimethylcyclohexyl)benzamide], the concentration for half-maximal inhibition (IC50) worked out at 3.5 nM.

Take `O=C(N[C@H]1CCN(c2ccnc(Cl)c2)C1)c1ccc(-c2nccc3occc23)cc1` [Example 195, (S)-N-[1-(2-chloropyridin-4-yl)pyrrolidin-3-yl]-4-(furo[3,2-c]pyridin-4-yl)benzamide]: the IC50 worked out at 1.7 nM.

`O=C(NC1CCN(c2nccc(CO)n2)CC1)c1ccc(-c2nccc3occc23)cc1` [Example 187, 4-(furo[3,2-c]pyridin-4-yl)-N-{1-[4-(hydroxymethyl)pyrimidin-2-yl]piperidin-4-yl}benzamide]: the IC50 worked out at 0.8 nM.

As to `CC(C)(O)[C@H]1CC[C@H](NC(=O)c2ccc(-c3nc(C#N)cc4occc34)cc2)CC1` [Example 317, 4-(6-cyanofuro[3,2-c]pyridin-4-yl)-N-[trans-4-(2-hydroxypropan-2-yl)cyclohexyl]benzamide], the IC50 was determined as 51 nM.

Regarding `CC(C)(O)[C@H]1CC[C@H](NC(=O)c2ccc(-c3nccc4occc34)c(O)c2)CC1` [Example 134, 4-(furo[3,2-c]pyridin-4-yl)-3-hydroxy-N-[trans-4-(2-hydroxypropan-2-yl)cyclohexyl]benzamide], the IC50 was 6.6 nM.

Turning to `NC(=O)c1ccnc(N2CCC(NC(=O)c3ccc(-c4nccc5occc45)cc3)CC2)n1` [Example 175, 2-{4-[4-(furo[3,2-c]pyridin-4-yl)benzamide]piperidin-1-yl}pyrimidine-4-carboxamide], the IC50 was found to be 1.3 nM.

`O=C(Nc1ccncc1)c1ccc(-c2nccc3occc23)cc1` [Example 108, 4-(furo[3,2-c]pyridin-4-yl)-N-(pyridin-4-yl)benzamide]: the concentration for half-maximal inhibition (IC50) came out at 5 nM.

Turning to `Cn1nnnc1N1CC[C@H](NC(=O)c2ccc(-c3nccc4occc34)cc2)C1` [Example 231, (S)-4-(furo[3,2-c]pyridin-4-yl)-N-[1-(1-methyl-1H-tetrazol-5-yl)pyrrolidin-3-yl]benzamide], the half-inhibitory concentration (IC50) amounted to 3.2 nM.

In the case of `CC(C)(O)[C@H]1CC[C@H](NC(=O)c2ccc(-c3nccc4occc34)c(F)c2)CC1` [Example 125, 3-fluoro-4-(furo[3,2-c]pyridin-4-yl)-N-[trans-4-(2-hydroxypropan-2-yl)cyclohexyl]benzamide], the IC50 was determined as 2.2 nM.

For `O=C(N[C@H]1CC[C@H](O)CC1)c1ccc(-c2nccc3sccc23)cc1` [Example 341, N-(trans-4-hydroxycyclohexyl)-4-(thieno[3,2-c]pyridin-4-yl)benzamide], the concentration for half-maximal inhibition (IC50) amounted to 2.4 nM.

In the case of `O=C(N[C@H]1CCN(c2ccc(Cl)nn2)C1)c1ccc(-c2nccc3occc23)cc1` [Example 228, (S)—N-[1-(6-chloropyridazin-3-yl)pyrrolidin-3-yl]-4-(furo[3,2-c]pyridin-4-yl)benzamide], the IC50 amounted to 1.9 nM.

As to `O=C(NCc1ccccc1Cl)c1ccc(-c2nccc3[nH]ccc23)cc1` [Example 56, N-(2-chlorobenzyl)-4-(1H-pyrrolo[3,2-c]pyridin-4-yl)benzamide], the IC50 is 1.7 nM.

`O=C(NCc1ccccc1CO)c1ccc(-c2nccc3occc23)cc1` [Example 65, 4-(furo[3,2-c]pyridin-4-yl)-N-[2-(hydroxymethyl)benzyl]benzamide]: the IC50 is 9 nM.

With `Cn1ccnc1CNC(=O)c1ccc(-c2nccc3[nH]ccc23)cc1` [Example 52, N-[(1-methyl-1H-imidazol-2-yl)methyl]-4-(1H-pyrrolo[3,2-c]pyridin-4-yl)benzamide], the IC50 is 1.6 nM.

`Cc1cc2occc2c(-c2ccc(C(=O)NC3CCN(C(=O)C4CC4)CC3)cc2)n1` [Example 335, N-[1-(cyclopropanecarbonyl)piperidin-4-yl]-4-(6-methylfuro[3,2-c]pyridin-4-yl)benzamide]: the IC50 is 1.2 nM.

Take `CCOCCNC(=O)c1ccc(-c2nccc3occc23)cc1` [Example 80, N-(2-ethoxyethyl)-4-(furo[3,2-c]pyridin-4-yl)benzamide]: the IC50 came to 32 nM.

With `O=C(NC1CCN(c2ccc(Cl)nn2)CC1)c1ccc(-c2nccc3occc23)cc1` [Example 148, N-[1-(6-chloropyridazin-3-yl)piperidin-4-yl]-4-(furo[3,2-c]pyridin-4-yl)benzamide], the IC50 amounted to 1.8 nM.

Consider `CC(C)N(CCNC(=O)c1ccc(-c2nccc3occc23)cc1)C(C)C` [Example 98, N-[2-(diisopropylamino)ethyl]-4-(furo[3,2-c]pyridin-4-yl)benzamide dihydrochloride], for which the IC50 came to 107 nM.

`O=C(NC[C@H]1CC[C@@H](O)CC1)c1ccc(-c2nccc3occc23)cc1` [Example 114, 4-(furo[3,2-c]pyridin-4-yl)-N-[(cis-4-hydroxycyclohexyl)methyl]benzamide]: the IC50 amounted to 25 nM.

`Cc1cc2occc2c(-c2ccc(C(=O)N[C@H]3CC[C@H](O)CC3)cc2)n1` [Example 333, N-(trans-4-hydroxycyclohexyl)-4-(6-methylfuro[3,2-c]pyridin-4-yl)benzamide]: the IC50 turned out to be 2.3 nM.
